In paper PMC3433414, “Oral Administration of the Pimelic Diphenylamide HDAC Inhibitor HDACi 4b Is Unsuitable for Chronic Inhibition of HDAC Activity in the CNS In Vivo” (PLoS ONE, 2012):

What was measured:
HDAC9 = molecular target: T1, HDAC9 (Homo sapiens, UniProt Q9UKV0); test: Two-step fluorogenic deacetylase assay, recombinant HDAC9; format: biochemical; settings: up to 50 µM
T1 construct: HDAC9 (αα 604–1066; cat # 50009); purchased BPS Bioscience (San Diego, CA) 50009
Description: (§1) To assess the biochemical and cellular potency of 4b and its conversion products/metabolites, we utilized the two-step fluorogenic assay which measures the HDAC-mediated catalytic conversion of synthetic acetylated lysine substrates. In brief, on deacetylation of the substrates by HDAC activity, a protease site is unmasked which allows subsequent trypsin-mediated cleavage and release of the highly flourescent AMC molecules in a subsequent step of the assay. The substrates used were Lys_Ac_AMC (Bachem I-1875) for HDAC3 and (Ac)Arg-Gly-Lys(Ac) (Bachem I-1925) for HDAC1 and HDAC2. […] However, the relatively labile and sterically more demanding trifluoracetyl group is readily hydrolyzed by the catalytically less avid Class IIa enzymes, allowing measurement of Class IIa activity using the 2-step fluorogenic assay. […]
(§2) For evaluation of the class selectivity of the compounds, we assessed inhibition against purified recombinant human full length HDAC1 (cat# 50051), HDAC2 (cat# 50052), HDAC3-NcoR2 (cat# 50003) and HDAC8 (cat# 50008): as representative of Class I activity; catalytic domain HDAC4(αα 648–1057), HDAC5 (αα 657–1123; cat # 50005), HDAC7 (αα 518-end; cat # 50007) and HDAC9 (αα 604–1066; cat # 50009) activity: representing all Class IIa activity; and full length HDAC6 (cat#50006): representing Class IIb activity. […]

[1] = Chemical stability in formulation or solution; format: physicochemical; settings: free base; LC-MS day 1 and after 7 days; with or without heating
Experimental: Thomas and colleagues reported that a solution of 4b at 1 mg/mL was previously obtained using this procedure. […] We therefore prepared both TFA and hydrochloride (HCl) salts of 4b to establish whether they could offer improved solubility. Neither salt form of 4b was particularly soluble in water (<1 mg/ml). […] A study of the stability of the TFA salt also raised another more worrying issue in the use of 2-hydroxypropyl-β-cyclodextrin–complexed 4b salts for potential in vivo studies. […] The 4b. […] The lower than expected initial quantification of 4b was most likely due to the TFA salt rapidly degrading upon heating. Indeed, we always found the presence of the cyclised benzimidazole conversion product, named throughout as product C1, in the salt formulations even at t = 0 after preparation. Furthermore, the suspension was not stable upon standing in the dark with gentle shaking at room temperature, with a further 28% decrease observed in parent (4b) concentration on day 7 analysis, compared to day 1.
According to Thomas et al, verification of an acute pharmacodynamic response (the reversal of transcriptional dysregulation in the R6/2 model) was achieved by the repeated once daily injection of 150 mg/kg 4b in 50∶50 DMSO: PBS for three consecutive days. […] The lack of any pharmacodynamic response predictive of central Class I HDAC inhibition when 4b was dosed orally at 150 mg/kg twice daily for 5 days confirmed this prediction.

HDACs = test: Biochemical HDAC assays (whole panel); set-up: species or system human; settings: up to 50 µM
Description: as §1, §2

T1 sequence (Q9UKV0 604-1066 isoform Q9UKV0-5): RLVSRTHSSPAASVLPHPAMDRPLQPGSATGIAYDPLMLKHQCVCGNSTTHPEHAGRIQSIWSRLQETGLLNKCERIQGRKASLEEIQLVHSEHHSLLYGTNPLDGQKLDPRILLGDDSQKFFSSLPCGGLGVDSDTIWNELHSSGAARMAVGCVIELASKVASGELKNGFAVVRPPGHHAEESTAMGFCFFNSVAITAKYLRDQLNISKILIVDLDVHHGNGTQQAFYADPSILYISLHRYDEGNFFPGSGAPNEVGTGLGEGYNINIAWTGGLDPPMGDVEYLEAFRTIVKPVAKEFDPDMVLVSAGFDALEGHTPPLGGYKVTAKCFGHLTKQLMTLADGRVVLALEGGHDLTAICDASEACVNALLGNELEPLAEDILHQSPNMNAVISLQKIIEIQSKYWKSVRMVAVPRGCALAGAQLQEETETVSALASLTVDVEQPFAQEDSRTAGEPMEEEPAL

## Nc1ccccc1NC(=O)CCCCCC(=O)Nc1ccccc1 [Compound 4b]
HDAC9
  activity against HDAC9: No activity
[1]
  degradation in cyclodextrin suspension: no degradation

## O=C(CCCCCc1nc2ccccc2[nH]1)Nc1ccccc1 [Compound C1, 6-(1-H-benzo[d]imidazol-2-yl)-N-phenylhexanamide]
HDACs
  activity in the biochemical HDAC assays: no activity
